Values of other authors, collected in patent US9579322B2, “Methods for treating neurologic disorders” (EIP Pharma, LLC, priority 2014, dated 2017).

Settings: animals; cited from earlier work

In the case of `NC(=O)c1ccc(N(C(N)=O)c2c(F)cccc2F)nc1-c1ccc(F)cc1F` [VX-702], the “blood brain barrier penetration” value is listed as “non-blood-brain-barrier-penetrant”.
